Results published in article PMC3701070 (PLoS ONE, 2013).

Experiments:
Test in all cases: Cell growth assay
Assay type in all cases: cell-based
[1] = tested on: MDA-MB-468; conditions: Homo sapiens, 72 h; MDA-MB-468, RAF WT, RAS WT, 3-day; read-out: gIC50
How it was run: (§1)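 Growth was quantified by CellTiter-Glo luminescent ATP read-out, taken at t = 0 and again at 72 h. Growth-inhibition IC50 (gIC50) values were derived from these readings.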

[2] = tested on: HuT78; conditions: Homo sapiens, 72 h; HuT78, RAF WT, RAS WT, 3-day; read-out: gIC50
How it was run: as §1

[3] = tested on: COR-L23; conditions: Homo sapiens, 72 h; COR-L23, RAF WT, RAS WT, 3-day; read-out: gIC50
How it was run: as §1

[4] = tested on: A2780; conditions: Homo sapiens, 72 h; A2780, RAF WT, RAS WT, 3-day; read-out: gIC50
How it was run: as §1

[5] = tested on: HT; conditions: Homo sapiens, 72 h, RAF WT, RAS WT, 3-day, read-out: gIC50
How it was run: as §1

[6] = tested on: CESS; conditions: Homo sapiens, 72 h, RAF WT, RAS WT, 3-day, read-out: gIC50
How it was run: as §1

[7] = tested on: 647-V; conditions: Homo sapiens, 72 h, RAF WT, RAS WT, 3-day, read-out: gIC50
How it was run: as §1

[8] = tested on: NCI-H322; conditions: Homo sapiens, 72 h; NCI-H322, RAF WT, RAS WT, 3-day; read-out: gIC50
How it was run: as §1

[9] = tested on: SW480; conditions: Homo sapiens, 72 h; SW480, RAF WT, KRAS(G12V), 3-day; read-out: gIC50
How it was run: as §1

[10] = tested on: SCC-12; conditions: Homo sapiens, SCC12, 72 h; SCC-12, RAF WT, RAS WT, 3-day; read-out: gIC50
How it was run: as §1

[11] = tested on: SW684; conditions: Homo sapiens, 72 h; SW684, RAF WT, RAS WT, 3-day; read-out: gIC50
How it was run: as §1

[12] = tested on: SNU-398; conditions: Homo sapiens, 72 h; SNU-398, RAF WT, RAS WT, 3-day; read-out: gIC50
How it was run: as §1

[13] = tested on: Daudi; conditions: Homo sapiens, 72 h, RAF WT, RAS WT, 3-day, read-out: gIC50
How it was run: as §1

[14] = tested on: BFTC-905; conditions: Homo sapiens, 72 h; BFTC-905, RAF WT, NRAS(Q61L), 3-day; read-out: gIC50
How it was run: as §1

[15] = tested on: CAL-27; conditions: Homo sapiens, 72 h; CAL-27, RAF WT, RAS WT, 3-day; read-out: gIC50
How it was run: as §1

[16] = tested on: Calu-3; conditions: Homo sapiens, 72 h; Calu-3, RAF WT, RAS WT, 3-day; read-out: gIC50
How it was run: as §1

[17] = tested on: OE-19; conditions: Homo sapiens, OE19, 72 h; OE-19, RAF WT, RAS WT, 3-day; read-out: gIC50
How it was run: as §1

[18] = tested on: 786-O; conditions: Homo sapiens, 786-0, 72 h, RAF WT, RAS WT, 3-day, read-out: gIC50
How it was run: as §1

[19] = tested on: HT-1080; conditions: Homo sapiens, 72 h; HT-1080, RAF WT, RAS WT, 3-day; read-out: gIC50
How it was run: as §1

[20] = tested on: UACC-812; conditions: Homo sapiens, 72 h; UACC-812, RAF WT, RAS WT, 3-day; read-out: gIC50
How it was run: as §1

[21] = tested on: HT-3; conditions: Homo sapiens, 72 h; HT-3, RAF WT, RAS WT, 3-day; read-out: gIC50
How it was run: as §1

[22] = tested on: Hs746.T; conditions: Homo sapiens, Hs746T, 72 h, RAF WT, RAS WT, 3-day, read-out: gIC50
How it was run: as §1

[23] = tested on: SNU-449; conditions: Homo sapiens, 72 h; SNU-449, RAF WT, RAS WT, 3-day; read-out: gIC50
How it was run: as §1

[24] = tested on: SR; conditions: Homo sapiens, 72 h, RAF WT, RAS WT, 3-day, read-out: gIC50
How it was run: as §1

[25] = tested on: A204; conditions: Homo sapiens, 72 h; A204, RAF WT, RAS WT, 3-day; read-out: gIC50
How it was run: as §1

[26] = tested on: OE-21; conditions: Homo sapiens, OE21, 72 h; OE-21, RAF WT, RAS WT, 3-day; read-out: gIC50
How it was run: as §1

[27] = tested on: UACC-257; conditions: Homo sapiens, 72 h; UACC-257, BRAF(V600E), RAS WT, 3-day; read-out: gIC50
How it was run: as §1

[28] = tested on: NCI-H146; conditions: Homo sapiens, 72 h; NCI-H146, RAF WT, RAS WT, 3-day; read-out: gIC50
How it was run: as §1

[29] = tested on: EKVX; conditions: Homo sapiens, 72 h, RAF WT, RAS WT, 3-day, read-out: gIC50
How it was run: as §1

[30] = tested on: A101D; conditions: Homo sapiens, 72 h, BRAF(V600E), RAS WT, 3-day, read-out: gIC50
How it was run: as §1

[31] = tested on: MDA-MB-231; conditions: Homo sapiens, 72 h; MDA-MB-231, BRAF(G464V), KRAS(G13D), 3-day; read-out: gIC50
How it was run: as §1

[32] = tested on: LNCaP; conditions: Homo sapiens, 72 h, RAF WT, RAS WT, 3-day, read-out: gIC50
How it was run: as §1

[33] = tested on: MC-IXC; conditions: Homo sapiens, 72 h, RAF WT, RAS WT, 3-day, read-out: gIC50
How it was run: as §1

[34] = tested on: C-4 I; conditions: Homo sapiens, 72 h, RAF WT, RAS WT, 3-day, read-out: gIC50
How it was run: as §1

[35] = tested on: Raji; conditions: Homo sapiens, 72 h, RAF WT, RAS WT, 3-day, read-out: gIC50
How it was run: as §1

In the case of `CC(C)(C)c1nc(-c2cccc(NS(=O)(=O)c3c(F)cccc3F)c2F)c(-c2ccnc(N)n2)s1` [dabrafenib], the IC50 [1] is reported as > 10 µM, the IC50 [2] is reported as 0.052 µM and the IC50 [3] is reported as > 10 µM. The IC50 [4] was > 10 µM, the IC50 [5] was > 10 µM and the IC50 [6] was 0.497 µM. For the same compound, the IC50 [7] was > 10 µM, the IC50 [8] was > 10 µM and the IC50 [9] was > 10 µM. The IC50 [10] was > 10 µM, the IC50 [11] was > 10 µM and the IC50 [12] was > 10 µM. For the same compound, the IC50 [13] was > 10 µM, the IC50 [14] was > 10 µM and the IC50 [15] was > 10 µM. For the same compound, the IC50 [16] was > 10 µM, the IC50 [17] was > 10 µM and the IC50 [18] was > 10 µM. For the same compound, the IC50 [19] was 2 µM, the IC50 [20] was > 10 µM and the IC50 [21] was > 10 µM. For the same compound, the IC50 [22] was > 10 µM, the IC50 [23] was > 10 µM and the IC50 [24] was > 10 µM. The IC50 [25] was > 10 µM, the IC50 [26] was > 10 µM and the IC50 [27] was 0.006 µM. The IC50 [28] was > 10 µM, the IC50 [29] was > 10 µM and the IC50 [30] was 0.009 µM. For the same compound, the IC50 [31] was > 10 µM, the IC50 [32] was > 10 µM and the IC50 [33] was > 10 µM. For the same compound, the IC50 [34] was > 10 µM and the IC50 [35] was > 10 µM.
